# Assay results reported in patent US11708562B2, “Differentiation of human embryonic stem cells” (Janssen Biotech, Inc., priority 2006, dated 2023).
# Tested on: H9P83 cells on MATRIGEL and H9P44 cells on MEFs
# Test: Microarray analysis of gene expression after definitive endoderm formation (Table IV)
# Assay type: cell-based, human
# Description: Controls for each group included cells plated on […]-coated dishes and cultured in MEF-conditioned medium or cells plated on MEFs and cultured in ES medium.
# Sample preparation, hybridization, and image analysis were performed according to the Affymetrix Human Genome U133 Plus 2.0 Array. Following normalization and a log transformation, data analysis was performed using OmniViz® software (MA) and […] (VizXLabs, WA). The variability within each treatment and among the different treatments was compared using the Pearson correlation coefficient. […] Significant differences in gene expression between the samples were evaluated using analysis of variance and an F-test with adjusted P-value (Benjamini and Hochberg correction) of ≤0.05. Only genes with a present call were included in the analysis.
# [1] = microarray, H9P44 on MEFs, DE stage, 5 days of treatment
# [2] = microarray, H9P83 on Matrigel, DE stage, 5 days of treatment
substance,measurement,setting,value
Activin A: a member of the TGFβ superfamily; growth factor (R&D Systems) used to differentiate human embryonic stem cells,SCG5 (NM_003020) gene expression,"H9P83 on Matrigel-DE stage, after 5 days of treatment, undifferentiated H9P83 on Matrigel 4.03",2.53
same,C20orf118 (BF437747) gene expression,"H9P83 on Matrigel-DE stage, after 5 days of treatment, undifferentiated H9P83 on Matrigel 4.26",1.99
same,C20orf118 (AV715309) gene expression,"H9P83 on Matrigel-DE stage, after 5 days of treatment, undifferentiated H9P83 on Matrigel 4.28",1.89
same,LECT1 (NM_007015) gene expression,"H9P83 on Matrigel-DE stage, after 5 days of treatment, undifferentiated H9P83 on Matrigel 4.83",2.27
same,SCNN1G (AI985987) gene expression,"H9P83 on Matrigel-DE stage, after 5 days of treatment, undifferentiated H9P83 on Matrigel −0.28",−0.99
same,PCDH8 (NM_002590) gene expression,"H9P83 on Matrigel-DE stage, after 5 days of treatment, undifferentiated H9P83 on Matrigel −0.80",−0.83
same,TMEM16A (NM_018043) gene expression,"H9P83 on Matrigel-DE stage, after 5 days of treatment, undifferentiated H9P83 on Matrigel −0.90",−1.93
same,ATP5S (BE968806) gene expression,"H9P83 on Matrigel-DE stage, after 5 days of treatment, undifferentiated H9P83 on Matrigel −1.15",−3.03
same,SDK2 (N23651) gene expression,"H9P83 on Matrigel-DE stage, after 5 days of treatment, undifferentiated H9P83 on Matrigel −1.16",−2.65
same,PAK7 (AB040812) gene expression,"H9P83 on Matrigel-DE stage, after 5 days of treatment, undifferentiated H9P83 on Matrigel −1.37",−3.89
same,IFIH1 (NM_022168) gene expression,"H9P83 on Matrigel-DE stage, after 5 days of treatment, undifferentiated H9P83 on Matrigel −2.03",−2.76
same,"gene expression ADAMTS5 (NM_007038), H9P44 on MEFs-DE stage",[1],1.11
same,"gene expression AF116676 (PRO1957 mRNA), H9P44 on MEFs-DE stage",[1],4.23
same,"gene expression AI016316 (ESTs), H9P44 on MEFs-DE stage",[1],0.25
same,"gene expression AI222435 (ESTs), H9P44 on MEFs-DE stage",[1],−0.33
same,"gene expression AK057525 (cDNA FLJ32963), H9P44 on MEFs-DE stage",[1],4.80
same,"gene expression BE327172 (v-jun avian sarcoma virus 17 oncogene homolog), H9P44 on MEFs-DE stage",[1],3.57
same,"gene expression C9orf19 (AA284532), H9P44 on MEFs-DE stage",[1],4.93
same,"gene expression CD99 (U82164), H9P44 on MEFs-DE stage",[1],6.36
same,"gene expression CDKN1A (NM_000389), H9P44 on MEFs-DE stage",[1],4.16
same,"gene expression CNN1 (NM_001299), H9P44 on MEFs-DE stage",[1],5.14
same,"gene expression COL22A1 (AW241910), H9P44 on MEFs-DE stage",[1],1.90
same,"gene expression CREB5 (AI819043), H9P44 on MEFs-DE stage",[1],1.80
same,"gene expression CXCL1 (NM_001511), H9P44 on MEFs-DE stage",[1],2.39
same,"gene expression DNAJB2 (NM_006736), H9P44 on MEFs-DE stage",[1],3.75
same,"gene expression DNAJC15 (NM_013238), H9P44 on MEFs-DE stage",[1],5.58
same,"gene expression EDG3 (AA534817), H9P44 on MEFs-DE stage",[1],4.58
same,"gene expression EMP3 (NM_001425), H9P44 on MEFs-DE stage",[1],3.13
same,"gene expression FLNC (NM_001458), H9P44 on MEFs-DE stage",[1],3.39
same,"gene expression FN1 (AK026737), H9P44 on MEFs-DE stage",[1],7.39
same,"gene expression FN1 (BC005858), H9P44 on MEFs-DE stage",[1],7.37
same,"gene expression GADD45A (NM_001924), H9P44 on MEFs-DE stage",[1],5.38
same,"gene expression GNA14 (NM_004297), H9P44 on MEFs-DE stage",[1],2.95
same,"gene expression HIST1H2BK (BC000893), H9P44 on MEFs-DE stage",[1],4.81
same,"gene expression IGSF4 (NM_014333), H9P44 on MEFs-DE stage",[1],3.79
same,"gene expression JUN (BG491844), H9P44 on MEFs-DE stage",[1],5.91
same,"gene expression KLF6 (AB017493), H9P44 on MEFs-DE stage",[1],4.87
same,"gene expression MFAP5 (U37283), H9P44 on MEFs-DE stage",[1],1.36
same,"gene expression MYL4 (M36172), H9P44 on MEFs-DE stage",[1],4.11
same,"gene expression PALLD (AK025843), H9P44 on MEFs-DE stage",[1],3.29
same,"gene expression PDGFC (AB033831), H9P44 on MEFs-DE stage",[1],0.21
same,"gene expression PLK2 (NM_006622), H9P44 on MEFs-DE stage",[1],5.19
same,"gene expression ST3GAL1 (NM_003033), H9P44 on MEFs-DE stage",[1],2.74
same,"gene expression TRDN (AA192306), H9P44 on MEFs-DE stage",[1],0.57
same,"gene expression TTC29 (AF345910), H9P44 on MEFs-DE stage",[1],0.91
same,"gene expression X58851 (MLC1emb gene), H9P44 on MEFs-DE stage",[1],4.04
same,"gene expression ADAMTS5 (NM_007038), H9P83 on Matrigel-DE stage",[2],1.80
same,"gene expression AF116676 (PRO1957 mRNA), H9P83 on Matrigel-DE stage",[2],3.31
same,"gene expression AI016316 (ESTs), H9P83 on Matrigel-DE stage",[2],1.19
same,"gene expression AI222435 (ESTs), H9P83 on Matrigel-DE stage",[2],−0.73
same,"gene expression AK057525 (cDNA FLJ32963), H9P83 on Matrigel-DE stage",[2],4.45
same,"gene expression BE327172 (v-jun avian sarcoma virus 17 oncogene homolog), H9P83 on Matrigel-DE stage",[2],2.94
same,"gene expression C9orf19 (AA284532), H9P83 on Matrigel-DE stage",[2],4.12
same,"gene expression CD99 (U82164), H9P83 on Matrigel-DE stage",[2],5.69
same,"gene expression CDKN1A (NM_000389), H9P83 on Matrigel-DE stage",[2],4.20
same,"gene expression CNN1 (NM_001299), H9P83 on Matrigel-DE stage",[2],5.75
same,"gene expression COL22A1 (AW241910), H9P83 on Matrigel-DE stage",[2],1.15
same,"gene expression CREB5 (AI819043), H9P83 on Matrigel-DE stage",[2],2.63
same,"gene expression CXCL1 (NM_001511), H9P83 on Matrigel-DE stage",[2],2.95
same,"gene expression DNAJB2 (NM_006736), H9P83 on Matrigel-DE stage",[2],3.46
same,"gene expression DNAJC15 (NM_013238), H9P83 on Matrigel-DE stage",[2],3.79
same,"gene expression EDG3 (AA534817), H9P83 on Matrigel-DE stage",[2],3.28
same,"gene expression EMP3 (NM_001425), H9P83 on Matrigel-DE stage",[2],3.90
same,"gene expression FLNC (NM_001458), H9P83 on Matrigel-DE stage",[2],4.17
same,"gene expression FN1 (AK026737), H9P83 on Matrigel-DE stage",[2],6.85
same,"gene expression FN1 (BC005858), H9P83 on Matrigel-DE stage",[2],6.86
same,"gene expression GADD45A (NM_001924), H9P83 on Matrigel-DE stage",[2],5.04
same,"gene expression GNA14 (NM_004297), H9P83 on Matrigel-DE stage",[2],4.52
same,"gene expression HIST1H2BK (BC000893), H9P83 on Matrigel-DE stage",[2],3.99
same,"gene expression IGSF4 (NM_014333), H9P83 on Matrigel-DE stage",[2],4.12
same,"gene expression JUN (BG491844), H9P83 on Matrigel-DE stage",[2],5.45
same,"gene expression KLF6 (AB017493), H9P83 on Matrigel-DE stage",[2],4.02
same,"gene expression MFAP5 (U37283), H9P83 on Matrigel-DE stage",[2],1.87
same,"gene expression MYL4 (M36172), H9P83 on Matrigel-DE stage",[2],3.30
same,"gene expression PALLD (AK025843), H9P83 on Matrigel-DE stage",[2],3.38
same,"gene expression PDGFC (AB033831), H9P83 on Matrigel-DE stage",[2],0.63
same,"gene expression PLK2 (NM_006622), H9P83 on Matrigel-DE stage",[2],5.88
same,"gene expression ST3GAL1 (NM_003033), H9P83 on Matrigel-DE stage",[2],1.68
same,"gene expression TRDN (AA192306), H9P83 on Matrigel-DE stage",[2],0.02
same,"gene expression TTC29 (AF345910), H9P83 on Matrigel-DE stage",[2],1.53
same,"gene expression X58851 (MLC1emb gene), H9P83 on Matrigel-DE stage",[2],2.75
